Source: patent US20090281047A1, “Compositions And Methods For Immunotherapy” (priority 2008, published 2009)

Legend:
[1] = tested on: varying malignancies including neuroendocrine cancer, nasal adenocarcinoma, brain stem tumor, thymoma, and histiocytoma; test: Treatment of dogs with varying malignancies (Example X); assay type: in vivo, dog; details: eight dogs; IV five days a week for three weeks, then 1 to 2 grams methacrylate coated para-hydroxyl-benzaldehyde-O-B-D-allopyranoside in food; some also acupuncture/alkaline water
Experimental: Eight dogs weighing between 60 and 80 pounds with varying malignancies including neuroendocrine cancer, nasal adenocarcinoma, brain stem tumor, thymoma, and histiocytoma were treated with 6 cc of the DMSO solution of Example II diluted in 200 cc saline administered intravenously five days a week for three weeks. The dogs were then given 1 to 2 grams of methacrylate coated para-hydroxyl-benzaldehyde-O-B-D-allopyranoside in their food seven days a week until they entered remission. Six of the dogs also received acupuncture and one received acupuncture and alkaline water.

breast cancer = test: Treatment of breast cancer patients (Example IX); assay type: in vivo, human
Excerpt: Forty-three of the patients in the study of Example VIII suffered from breast cancer. These forty-three were divided into four groups. One group of 7 was given the glycome solution of Example II; a group of five was given the glycome solution of Example II in combination with chemotherapy; a group of thirteen was given the glycome solution of Example II in combination with chemotherapy and Poly-MVA® (AMARC Enterprises, Inc., Spring Valley, Calif.) (blend of Palladium and alpha-lipoic Acid, Vitamins B1, B2 and B12, Formylmethionine, Acetyl Cystiene, and trace amounts of Molybdinum, Rhodium, and Ruthenium); and the remaining eighteen were given a combination of the glycome solution of Example II and Poly-MVA® (AMARC Enterprises, Inc., Spring Valley, Calif.) without chemotherapy. Patients receiving the glycome solution were given a solution containing three grams of the powder isolated in Example I a day intravenously for five days then six capsules containing a total of 3 g/day of para-hydroxyl-benzaldehyde-O-B-D-allopyranoside formulated according to Example IV and two capsules containing the formulation of Example V orally for two days, repeating for four weeks. They were then given six capsules containing a total of 3 g/day of para-hydroxyl-benzaldehyde-O-B-D-allopyranoside formulated according to Example IV and two capsules containing the formulation of Example V orally per day until they entered remission.

Epstein Barr virus = test: Treatment of Epstein Barr (Example XIII); assay type: in vivo, human; details: thirty five individuals; 200 mg in 1 liter alkaline water pH 11 twice daily for three months
Experimental: (§1) Thirty five individuals with Epstein Barr virus were administered a solution comprising, 1 liter of Alkaline water prepared as described in Example XI and diluted with non-chlorinated drinking water to a pH of 11 mixed with 200 mg of columbianitin extracted from Lomatium Disectum, twice daily for three months.

Lyme Disease = test: Treatment of Lyme Disease (Example XII); assay type: in vivo, human; details: five individuals; 200 mg in 1 liter alkaline water pH 11 twice daily for three months
Experimental: as §1, with “Five” for “Thirty five”, “positive for Lyme Disease” for “with Epstein Barr virus”, “comprising” for “comprising,”, “Disectum” for “Disectum,”

[2] = tested on: Methicillin Resistant Staphylococcus aureus (MRSA); test: Treatment of MRSA (Example XV); assay type: in vivo, human; details: three individuals; 200 mg in 1 liter alkaline water pH 11 twice daily for three months
Experimental: as §1, with “Three” for “Thirty five”, “suffering from MRSA” for “with Epstein Barr virus”

candadiasis = test: Treatment of candadiasis (Example XIV); assay type: in vivo, human; details: 25 individuals; 200 mg in 1 liter alkaline water pH 11 twice daily for three months
Experimental: 25 individuals with candadiasis were administered a solution comprising, 1 liter of Alkaline water prepared as described in Example XI and diluted with non-chlorinated drinking water to a pH of 11 mixed with 200 mg of columbianitin extracted from Lomatium Disectum, twice daily for three months.

Row | Compound | tumor response [1] | breast cancer patients survived for at least two years, overall (breast cancer; all forty-three breast cancer patients, all four treatment groups) [%] | breast cancer patients survived (breast cancer; group of eighteen, combination with Poly-MVA without chemotherapy) | breast cancer patients survived (breast cancer; group of five, combination with chemotherapy) [%] | Epstein Barr virus test at the end of three months (Epstein Barr virus) | Lyme disease test at the end of three months (Lyme Disease) | clinical outcome at the end of three months [2] | skin infections at the end of three months (candadiasis) | vaginal infections at the end of three months (candadiasis)
1 | O=Cc1ccc(O[C@@H]2O[C@H](CO)[C@@H](O)[C@@H](O)[C@H]2O)cc1 [para-hydroxyl-benzaldehyde-O-B-D-allopyranoside] | significant reduction or elimination of the tumor | 79 | seventy-eight | 100 | – | – | – | – | –
2 | CC(C)(O)[C@@H]1Cc2c(ccc3ccc(=O)oc23)O1 [columbianitin] | – | – | – | – | all thirty-five individuals tested negative | all five individuals tested negative | all three individuals improved considerably | resolved | remained the same
